# Where two headings read alike, the source gives them in different places.
# Assays:
# in vivo = conditions: Daphnia magna
# [1] = system: A375 human melanoma cell line; assay: Alamar blue cell viability assay; type: cell-based; conditions: relative to untreated control; for Viability %: 48 h treatment, 10 µM
# Protocol: (§1) Compounds HL, 1, 5, 6 and 8 were dissolved in dimethyl sulfoxide (DMSO; Sigma-Aldrich, Ayrshire, UK) and stored at 2–8 °C. Compounds 2, 3, 4 and 7 were dissolved in pyridine (Fluka, Munich, Germany). A stock solution of 10 mM in the proper solvents was prepared; as for the final concentration (10 µM), successive dilution of the stock solution with culture medium was made.
# (§2) The breast cancer cell lines were cultured as follow: MCF-7 human breast cancer cell line (ATCC, Rockville, MD, USA) was cultured in EMEM (Sigma Aldrich, Munich, Germany) supplemented with 10% FCS (fetal bovine serum, PromoCell, Heidelberg, Germany), 1% penicillin-streptomycin (Pen/Strep, 10,000 IU/mL; PromoCell, Heidelberg, Germany), 1% nonessential amino acids and 1% glutamine (PromoCell, Heidelberg, Germany). SKBR-3 human breast cancer cell line was cultured in McCoy’s 5a Medium Modified (Sigma Aldrich, Munich, Germany) supplemented with 10% FCS (fetal bovine serum, PromoCell, Heidelberg, Germany), 1% penicillin-streptomycin (Pen/Strep, 10,000 IU/mL; PromoCell, Heidelberg, Germany). A375 human melanoma cell line was cultured in DMEM containing 15% FCS (fetal bovine serum, PromoCell, Heidelberg, Germany) and 1% penicillin-streptomycin (Pen/Strep, 10,000 IU/mL; PromoCell, Heidelberg, Germany). Cells were maintained at an atmosphere of 5% CO2 at 37 °C. NCI-H1573 lung adenocarcinoma cell line was cultured in RPMI-1640 Medium (ATCC, Rockville, MD, USA) supplemented with 10% FCS (fetal bovine serum, PromoCell, Heidelberg, Germany), 1% penicillin-streptomycin (Pen/Strep, 10,000 IU/mL; PromoCell, Heidelberg, Germany).
# (§3) All tested cell lines were seeded onto a 96-well microplate ([…]) and left overnight to attach to the bottom of the well. After 24 h, the amount of 150 μL of the tested substances dissolved into the culture medium was added and cells were incubated for 48 h. After the incubation period, a volume of 15 μL of the Alamar blue (BioSource, Camarillo, CA, USA) solution was added. After another 10 h of incubation at 37 °C, the samples were spectrophotometrically analyzed using a microplate reader. The wave lengths used were 570 nm and 600 nm, respectively. Wells with untreated cells were used as controls. The highest concentration of DMSO and pyridine (0.1%) used to prepare stock solutions was also tested, in order to identify the solvent activity. All measurements were performed in triplicate and data were presented as mean ± standard deviation.
# [2] = system: NCI-H1573 lung adenocarcinoma cell line; assay: Alamar blue cell viability assay; type: cell-based; conditions: 48 h treatment, relative to untreated control; for Viability %: 10 µM
# Protocol: as §1, §2, §3
# [3] = system: SKBR-3 human breast cancer cell line; assay: Alamar blue cell viability assay; type: cell-based; conditions: relative to untreated control; for Viability %: 48 h treatment, 10 µM
# Protocol: as §1, §2, §3
# [4] = system: MCF-7 human breast cancer cell line; assay: Alamar blue cell viability assay; type: cell-based; conditions: 48 h treatment, relative to untreated control; for Viability %: 10 µM
# Protocol: as §1, §2, §3
# [5] = Solubility in compendial aqueous media; type: physicochemical; conditions: 37 °C, mean ± standard deviation, n = 3; for solubility at 30 min: kinetic from dmso stock; for solubility in compendial media: 30 min
# Protocol: Solubility assessment was conducted in compendial aqueous solutions prepared according to United States Pharmacopoeia USP39/NF34): hydrochloric acid 0.1 N pH 1.2, acetate buffer pH 4.5 and phosphate buffer 6.8. These buffer systems are routinely used for screening of drug dissolution testing and they simulate the pH values of proximal gastrointestinal regions. The standard samples were prepared by diluting the stock solution of 80 µg/mL in dimethyl sulfoxide (with 0.2% pyridine, v/v) with corresponding media. The reagents were of analytical grade and used as received.
# The assay was performed using a SpectraMax Plus 84 Plate reader reader (Sunnyvale, CA, USA), Molecular Devices LLC (US), equiped with SoftMax software version 6.4.2 (Sunnyvale, CA, USA). Separate plates were loaded with standard solutions in nine concentrations (0.2 to 80 µg/mL). For evaluation of the aqueous solubility, the samples were prepared in triplicate by adding 10 µL of the stock solution to the wells loaded with 190 µL of each buffer, using MultiScreen HTS plates (PCF, code MSSLBPC, Merck Millipore, Darmstadt, Germany). After 30 minutes of incubation at 37 ± 0.5 °C under agitation (250 rpm, IKA KS 4000 ic control, IKA, Staufen, Germany), the plates were filtrated under vacuum using a Vac-Man 96 Vacuum manifold (Promega Corporation, Madison, WI, USA). The solutions were collected in V-bottom polypropylene 96-well microplates (Greiner Bio-One, Kremsmünster, Austria). Volumes of 100 µL were transferred to UV-Star 96-well microplate with flat bottom (Chimney well, Grained Bio-One) and diluted by addition of 100 µL of the corresponding medium. The absorbance corresponding to each well was determined at fixed wavelengths: 280, 300, 320, 340, 360 and 800 nm. The reduced value of absorbance, calculated by the sum of the values recorded at the six wavelengths, were used for the calibration curve and subsequent determination of concentration in each solubility sample.
# [6] = system: Escherichia coli, ATCC 25922; assay: Antibacterial activity, serial dilutions in liquid broth (MIC/MBC); type: cell-based; conditions: E. coli (G −)
# Source text: (§4) All synthesized complexes and the ligand were screened for their in vitro antibacterial activity against Gram-positive bacteria (Staphylococcus aureus), Gram-negative bacteria (Escherichia coli, Klebsiella pneumoniae) and antifungal activity (Candida albicans) strains using the paper disc diffusion technique (for the qualitative determination) and the serial dilutions in liquid broth method (for determination of MIC). Furacillinum and nystatine were used as standard drugs.
# (§5) The antibacterial activity of complexes and also of their prototype furacilin has been determined under liquid nutritive environment (2% of peptonate bullion (pH 7.0)) using the successive dilutions method. Escherichia coli, Klebsiella pneumoniae, and Staphylococcus aureus stems were used as reference culture for the in vitro experiment. The dissolution of studied substances in dimethylformamide, microorganism cultivation, suspension obtaining, determination of minimal inhibition concentration (MIC) and minimal bactericide concentration (MBC) have been carried out according to the method previously reported.
# [7] = system: Klebsiella pneumoniae, ATCC 31,488; assay: as above; type: cell-based; conditions: K. pneumoniae (G −)
# Source text: as §4, §5
# [8] = system: Staphylococcus aureus, ATCC 25923; assay: as above; type: cell-based; conditions: S. aureus (G +)
# Source text: as §4, §5
# Candida albicans = assay: Antifungal (antimycotic) activity, liquid Sabouraud medium (MIC/MBC); type: cell-based; conditions: C. albicans
# Source text: as §4
# Antimycotic properties of the complexes were investigated in vitro on laboratory stem Candida albicans. The activity has been determined in a liquid Sabouraud nutritive environment (pH 6.8). The inoculates were prepared from fungi stems which were harvested over 3–7 days. Their concentration in suspension is (2–4) × 10^6 colonies form unities in milliliter. Sowings for levures and micelles were incubated at 37 °C during 7 and 14 days, respectively.
# [9] = Qualitative solubility in organic solvents; type: physicochemical
# [10] = Hydrochloric Acid 0.1 N (pH = 1.2)
SMILES,MBC [6],MIC [6],MBC [7],MIC [7],MBC [8],MIC [8],LC50 (Daphnia magna; incubation period 24 h),LC50 (Daphnia magna; incubation period 48 h),MBC (Candida albicans),MIC (Candida albicans),solubility in organic solvents (qualitative) [9],Viability % [1],Viability % [2],Viability % [3],Viability % [4],solubility in compendial media ([5]; Acetate Buffer (pH = 4.5)),"solubility in compendial media [5, 10]",solubility in compendial media ([5]; Phosphate Buffer (pH = 6.8)),further results
"COc1cccc(/C=N/NC(=O)c2ccncc2)c1O [HL, N-isonicotinoyl-N′-(3-metoxy-2 hydroxybenzaldehyde)-hydrazone]",,,,,,,,,,,,,,,,,,,"LC50 (in vivo; LC50, incubation period 24 h): 53.1 µM; LC50 (in vivo; LC50, incubation period 48 h): 52.6 µM; viability at 10 µM ([1]; Homo sapiens, A-375, 48 h treatment): 82.4%; viability at 10 µM ([2]; Homo sapiens, NCI-H1573, 48 h): 29.2%; viability at 10 µM ([3]; Homo sapiens, SK-BR-3, 48 h treatment): 76.3%; viability at 10 µM ([4]; Homo sapiens, MCF7, 48 h): 21.5%; solubility at 30 min ([5]; aqueous buffer, Acetate Buffer (pH = 4.5)): 3.49 ± 0.41 µg/mL; solubility at 30 min ([5]; aqueous buffer, Phosphate Buffer (pH = 6.8)): 0.25 ± 0.02 µg/mL; solubility at 30 min ([5]; simulated gastric fluid, Hydrochloric Acid 0.1 N (pH = 1.2)): 2.02 ± 0.02 µg/mL"
"CC(=O)[O-].COc1cccc(C=NNC(=O)c2ccncc2)c1[O-].[Cu+2] [complex 2, [Cu(L)(CH3COO)]]",500 µg/mL,500 µg/mL,500 µg/mL,500 µg/mL,0.015 µg/mL,0.015 µg/mL,69.6 µM,13.1 µM,250 µg/mL,125 µg/mL,"soluble in pyridine and is partially soluble in ethanol, methanol, acetonitrile, acetone, DMF and DMSO",0.73%,7.22%,6.88%,2.10%,1.27 ± 0.06 µg/mL,1.75 ± 0.54 µg/mL,<0.2 µg/mL,
"COc1cccc(C=NNC(=O)c2ccncc2)c1[O-].O.O=[N+]([O-])[O-].[Cu+2] [complex 3, [Cu(L)(NO3)]·H2O]",500 µg/mL,500 µg/mL,500 µg/mL,500 µg/mL,0.15 µg/mL,0.07 µg/mL,317 µM,5.61 µM,3 µg/mL,1.5 µg/mL,"soluble in pyridine and is partially soluble in ethanol, methanol, acetonitrile, acetone, DMF and DMSO",1.59%,12.14%,62.65%,2.44%,1.69 ± 0.18 µg/mL,0.92 ± 0.11 µg/mL,<0.2 µg/mL,
"COc1cccc(C=NNC(=O)c2ccncc2)c1[O-].COc1cccc(C=NNC(=O)c2ccncc2)c1[O-].[Co+2] [complex 5, [Co(L)2]]",500 µg/mL,250 µg/mL,500 µg/mL,500 µg/mL,0.7 µg/mL,0.7 µg/mL,278 µM,2.38 µM,250 µg/mL,125 µg/mL,"soluble in pyridine, DMF and DMSO, and is partially soluble in ethanol, methanol, acetonitrile, acetone",88.96%,89.79%,76.68%,55.61%,1.62 ± 0.72 µg/mL,<0.2 µg/mL,<0.2 µg/mL,

# From article PMC6154339, “Synthesis, Characterization, Antimicrobial and Antiproliferative Activity Evaluation of Cu(II), Co(II), Zn(II), Ni(II) and Pt(II) Complexes with Isoniazid-Derived Compound” (Molecules : A Journal of Synthetic Chemistry and Natural …, 2017)
